Values belong to the compound of their own block, whether it stands above or below them.
Key:
CAL-85-1 = assay: drug sensitivity score (DSS), CellTiter-Blue viability (DSS (AUC-based score)); higher = stronger viability inhibition; extreme values may be limits of the assay; conditions: incubation time: 72 h
Procedure: (§1)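 DSRT with the CellTiter-Blue (resazurin reduction) viability readout, fluorescence 560/590 nm, 72 h incubation. Plates were normalised to DMSO and benzethonium chloride controls. DSS is computed from the area under the fitted dose-response curve (5 or 9 concentrations).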

MDA-MB-453 = assay: as above; conditions: incubation time: 72 h
Procedure: as §1

Hs578T = assay: as above; conditions: incubation time: 72 h
Procedure: as §1

HCC1143 = assay: as above; conditions: incubation time: 72 h
Procedure: as §1

DU-4475 = assay: as above; conditions: incubation time: 72 h
Procedure: as §1

MDA-MB-468 [1] = assay: as above; conditions: incubation time: 72 h
Procedure: as §1

HCC1599 = assay: as above; conditions: incubation time: 72 h
Procedure: as §1

HDQ-P1 = assay: as above; conditions: incubation time: 72 h
Procedure: as §1

HCC1937 = assay: as above; conditions: incubation time: 72 h
Procedure: as §1

MFM-223 = assay: as above; conditions: incubation time: 72 h
Procedure: as §1

CAL-148 = assay: as above; conditions: incubation time: 72 h
Procedure: as §1

CAL-120 = assay: as above; conditions: incubation time: 72 h
Procedure: as §1

BT-474 = assay: as above; conditions: incubation time: 72 h
Procedure: as §1

BT-549 = assay: as above; conditions: incubation time: 72 h
Procedure: as §1

MDA-MB-436 = assay: as above; conditions: incubation time: 72 h
Procedure: as §1

CAL-51 = assay: as above; conditions: incubation time: 72 h
Procedure: as §1

SK-BR-3 = assay: as above; conditions: incubation time: 72 h
Procedure: as §1

MDA-MB-231 = assay: as above; conditions: incubation time: 72 h
Procedure: as §1

MDA-MB-468 [2] = conditions: 72 h
How it was run: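 In this assay, breast cancer cell lines spent 72 h with compound at 5 concentrations in 10-fold steps over a compound-specific 10,000-fold range. The first readout was cell death by CellTox Green fluorescence, and the second was viability by CellTiter-Glo luminescence, each normalised per plate to 0.1 % DMSO and a positive kill control. EC50 came from the dose-response curves, censored at the top concentration.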

SMILES: Cc1ccc(NC(=O)c2ccc(CN3CCN(C)CC3)cc2)cc1Nc1nc(-c2cccnc2)cs1 [Masitinib]
drug sensitivity score (CAL-85-1): 0
drug sensitivity score (MDA-MB-453): 4.09
drug sensitivity score (Hs578T): 0
drug sensitivity score (HCC1143): 0
drug sensitivity score (DU-4475): 0
drug sensitivity score (MDA-MB-468 [1]): 0
drug sensitivity score (HCC1599): 0
drug sensitivity score (HDQ-P1): 0
drug sensitivity score (HCC1937): 0
drug sensitivity score (MFM-223): 0
drug sensitivity score (CAL-148): 0
drug sensitivity score (CAL-120): 0
drug sensitivity score (BT-474): 0
drug sensitivity score (BT-549): 0
drug sensitivity score (MDA-MB-436): 0.552
drug sensitivity score (CAL-51): 0
drug sensitivity score (SK-BR-3): 2.27
drug sensitivity score (MDA-MB-231): 0
EC50, CellTiter-Glo (MDA-MB-468 [2]): 2290 nM

SMILES: O=C(Nc1ccncc1)C(=O)c1cn(Cc2ccc(Cl)cc2)c2ccccc12 [Indibulin]
drug sensitivity score (CAL-85-1): 11.8
drug sensitivity score (MDA-MB-453): 18
drug sensitivity score (Hs578T): 11.3
drug sensitivity score (HCC1143): 16.4
drug sensitivity score (DU-4475): 7.93
drug sensitivity score (MDA-MB-468 [1]): 15.3
drug sensitivity score (HCC1599): 0
drug sensitivity score (HDQ-P1): 12.5
drug sensitivity score (HCC1937): 25.9
drug sensitivity score (MFM-223): 5.75
drug sensitivity score (CAL-148): 2.12
drug sensitivity score (CAL-120): 22.2
drug sensitivity score (BT-474): 18.3
drug sensitivity score (BT-549): 16.6
drug sensitivity score (MDA-MB-436): 8.9
drug sensitivity score (CAL-51): 10.8
drug sensitivity score (SK-BR-3): 25.9
drug sensitivity score (MDA-MB-231): 20.7
EC50, CellTiter-Glo (MDA-MB-468 [2]): 273 nM

SMILES: N#Cc1ccc(COC[C@H]2O[C@@H](n3c(NCc4ccc(Cl)c(Cl)c4)nc4c(N)ncnc43)[C@H](O)[C@@H]2O)cc1
drug sensitivity score (CAL-85-1): 0
drug sensitivity score (MDA-MB-453): 0
drug sensitivity score (Hs578T): 0
drug sensitivity score (HCC1143): 0
drug sensitivity score (DU-4475): 1.33
drug sensitivity score (MDA-MB-468 [1]): 1.65
drug sensitivity score (HCC1599): 8.13
drug sensitivity score (HDQ-P1): 0
drug sensitivity score (HCC1937): 3.59
drug sensitivity score (MFM-223): 0
drug sensitivity score (CAL-148): 0
drug sensitivity score (CAL-120): 0
drug sensitivity score (BT-474): 0
drug sensitivity score (BT-549): 4.23
drug sensitivity score (MDA-MB-436): 4.85
drug sensitivity score (CAL-51): 0
drug sensitivity score (SK-BR-3): 1.46
drug sensitivity score (MDA-MB-231): 4.35
EC50, CellTiter-Glo (MDA-MB-468 [2]): 2270 nM

SMILES: NC(=O)c1ccc(I)c([N+](=O)[O-])c1 [Iniparib]
drug sensitivity score (CAL-85-1): 0
drug sensitivity score (MDA-MB-453): 0
drug sensitivity score (Hs578T): 0
drug sensitivity score (HCC1143): 0
drug sensitivity score (DU-4475): 0
drug sensitivity score (MDA-MB-468 [1]): 0
drug sensitivity score (HCC1599): 0
drug sensitivity score (HDQ-P1): 0
drug sensitivity score (HCC1937): 0
drug sensitivity score (MFM-223): 0
drug sensitivity score (CAL-148): 0
drug sensitivity score (CAL-120): 1.19
drug sensitivity score (BT-474): 0
drug sensitivity score (BT-549): 0
drug sensitivity score (MDA-MB-436): 0
drug sensitivity score (CAL-51): 0
drug sensitivity score (SK-BR-3): 0
drug sensitivity score (MDA-MB-231): 0
EC50, CellTiter-Glo (MDA-MB-468 [2]): 230 nM

More lines, main results first:

EC50, CellTiter-Glo (MDA-MB-468 [2]): 0.33 nM
SMILES: CO[C@H]1C[C@@H]2CC[C@@H](C)[C@@](O)(O2)C(=O)C(=O)N2CCCC[C@H]2C(=O)O[C@H]([C@H](C)C[C@@H]2CC[C@@H](OP(C)(C)=O)[C@H](OC)C2)CC(=O)[C@H](C)/C=C(\C)[C@@H](O)[C@@H](OC)C(=O)[C@H](C)C[C@H](C)/C=C/C=C/C=C/1C [Ridaforolimus]
drug sensitivity score (CAL-85-1): 16
drug sensitivity score (MDA-MB-453): 29.9
drug sensitivity score (Hs578T): 19.1
drug sensitivity score (HCC1143): 16.3
drug sensitivity score (DU-4475): 16.7
drug sensitivity score (MDA-MB-468 [1]): 16.7
drug sensitivity score (HCC1599): 0
drug sensitivity score (HDQ-P1): 7.08
drug sensitivity score (HCC1937): 17.2
drug sensitivity score (MFM-223): 22.1
drug sensitivity score (CAL-148): 25
drug sensitivity score (CAL-120): 19.1
drug sensitivity score (BT-474): 14.5
drug sensitivity score (BT-549): 17.6
drug sensitivity score (MDA-MB-436): 1.25
drug sensitivity score (CAL-51): 22
drug sensitivity score (SK-BR-3): 16.8
drug sensitivity score (MDA-MB-231): 2.74

EC50, CellTiter-Glo (MDA-MB-468 [2]): 7.82 nM
SMILES: COc1cc2/c(=N/c3ccc(Br)cc3F)nc[nH]c2cc1OCC1CCN(C)CC1 [Vandetanib]
drug sensitivity score (CAL-85-1): 6.73
drug sensitivity score (MDA-MB-453): 3.82
drug sensitivity score (Hs578T): 3.9
drug sensitivity score (HCC1143): 0.583
drug sensitivity score (DU-4475): 0
drug sensitivity score (MDA-MB-468 [1]): 6.11
drug sensitivity score (HCC1599): 0
drug sensitivity score (HDQ-P1): 14
drug sensitivity score (HCC1937): 0
drug sensitivity score (MFM-223): 8.55
drug sensitivity score (CAL-148): 0
drug sensitivity score (CAL-120): 3.15
drug sensitivity score (BT-474): 7.12
drug sensitivity score (BT-549): 5.01
drug sensitivity score (MDA-MB-436): 13
drug sensitivity score (CAL-51): 6.07
drug sensitivity score (SK-BR-3): 4.07
drug sensitivity score (MDA-MB-231): 6.74

EC50, CellTiter-Glo (MDA-MB-468 [2]): 2500 nM
SMILES: O=C(Nc1cccnc1)N1CCC(Cc2cccc(Oc3ccc(C(F)(F)F)cn3)c2)CC1 [PF-3845]
drug sensitivity score (CAL-85-1): 0
drug sensitivity score (MDA-MB-453): 4.35
drug sensitivity score (Hs578T): 0.892
drug sensitivity score (HCC1143): 0
drug sensitivity score (DU-4475): 0
drug sensitivity score (MDA-MB-468 [1]): 0.694
drug sensitivity score (HCC1599): 0
drug sensitivity score (HDQ-P1): 0
drug sensitivity score (HCC1937): 0
drug sensitivity score (MFM-223): 0
drug sensitivity score (CAL-148): 0
drug sensitivity score (CAL-120): 0
drug sensitivity score (BT-474): 1.39
drug sensitivity score (BT-549): 4.79
drug sensitivity score (MDA-MB-436): 0
drug sensitivity score (CAL-51): 0.908
drug sensitivity score (SK-BR-3): 0
drug sensitivity score (MDA-MB-231): 0

From the supplement of paper PMC4862054
